Assay results taken from patent publication US7985744B2, “Vitamin D derivatives” (Chugai Seiyaku Kabushiki Kaisha, priority 2000, dated 2011).

Key:
[1] = Blood ionized calcium level in mice after percutaneous administration (Test Examples 1 and 3); type: in vivo; conditions: Balb/c mice, percutaneous single application, dose 1000 μg/kg, blood taken two days after administration
Procedure: Eight week old male Balb/c mice were percutaneously administered with active vitamin D3 (1α,25 (OH)2D3, 125 μg/ml in ethanol) or Compounds 1 to 5 (vitamin D derivatives prepared in the above Examples, 500 μg/ml in ethanol) or ethanol alone (as a control). These samples were applied once to the dorsal skin (about 1.5×2.0 cm^2) of the mice in a volume of 2 ml/kg. Each of the mice was then fitted with a necklace harness in order to avoid oral ingestion. On the next day, the administered sites were cleaned and the necklace harnesses were removed. Two days after administration, blood was taken from each mouse and assayed for ionized calcium level by the ion selective electrode method. The assay was performed in groups of 3 mice. […] Ionized calcium levels in the table are expressed as mean values.
The same procedures as shown in Test Example 1 were repeated to assay blood ionized calcium levels in mice, except that Compounds 6 to 12 were used as vitamin D derivatives. […] Ionized calcium levels in the table are expressed as mean values.

[2] = test system: Keratinocytes from adult human skin; assay: Growth inhibition against keratinocytes, [3H]thymidine incorporation (Test Example 4); type: cell-based; conditions: relative inhibition = IC50 of active vitamin D3 / IC50 of test compound
Procedure: Keratinocytes from adult human skin (Clonetics) were seeded in 96-well plates (COSTAR 3595) at a cell density of 1×10^3/well. The wells were then supplemented with the given concentrations of active vitamin D3 (1α,25 (OH)2D3) or Compounds 6 to 12, followed by incubation in KGM-2 medium at a cell density of 1×10^3 cells/200 μl/well for 3 days at 37° C. in 5% CO2 and 95% air. [^3H]Thymidine was added to each well (7.4 kBq/well) and the plates were further incubated for 1 day. After removal of the medium, each well was treated with 0.05% trypsin/0.53 mM EDTA to strip the cells. The amount of [^3H]thymidine incorporated into the cells was determined with a liquid scintillation counter (1450 MicroBeta, Wallac). […] Growth inhibition against keratinocytes in the table was expressed as a relative value of each compound compared to active vitamin D3: Relative inhibition=(IC50 (mol/l) of active vitamin D3)/(IC50 (mol/l) of test compound).

[3] = test system: Keratinocytes from human neonatal foreskin; assay: Growth inhibition against human keratinocytes, [3H]thymidine uptake (Test Example 2); type: cell-based; conditions: relative inhibition = IC50 of active vitamin D3 / IC50 of each compound
Procedure: Keratinocytes from human neonatal foreskin (Clonetics) were seeded in 96-well plates (COSTAR 3595) at a cell density of 2×10^3/well. The wells were then supplemented with the given concentrations of active vitamin D3 (1α,25 (OH)2D3) or Compounds 1 to 5, followed by incubation in KGM-2 medium at a cell density of 2×10^3 cells/200 μl/well for 3 days at 37° C. in 5% CO2 and 95% air. [^3H]Thymidine was added to each well (7.4 kBq/well) and the plates were further incubated for 1 day. Each well was washed once with calcium- and magnesium-free phosphate buffer (Dulbecco's PBS(−), Nissui, code 05913, pH 7.3-7.65) and then treated with 0.25% trypsin to strip the cells. The [^3H]thymidine uptake of the cells was determined by a liquid scintillation counter (1450 MicroBeta, Wallac). […] Growth inhibition against human keratinocytes in the table was expressed as a relative value of each compound compared to active vitamin D3: Relative inhibition=(IC50 (mol/l) of active vitamin D3)/(IC50 (mol/l) of each compound).

Compound | Blood ionized calcium level ([1]; Test Example 3, mean values) [mmol/L] | Growth inhibition against human keratinocytes (relative value) [2] | Growth inhibition against human keratinocytes (relative value) [3] | Blood ionized calcium level ([1]; Test Example 1, mean of 3 mice) [mmol/L]
1α,3β-dihydroxy-20(S)-(1-isopropyl-2-methylpropoxycarbonylmethoxy)-9,10-secopregna-5,7,10(19),16-tetraene [Compound 7] | 1.28 | 0.4 | – | –
20(S)-(tert-butoxycarbonylmethoxy)-1α,3β-dihydroxy-9,10-secopregna-5,7,10(19),16-tetraene [Compound 1] | – | – | 2.0 | 1.65
C=C1C(=CC=C2CCCC3(C)C2CCC3C(C)OCC(=O)OC(C)(CC)CC)CC(O)CC1O [Compound 9, 1α,3β-dihydroxy-20(S)-(1-ethyl-1-methylpropoxycarbonylmethoxy)-9,10-secopregna-5,7,10(19)-triene] | 1.55 | 0.7 | – | –
C=C1C(=CC=C2CCCC3(C)C(C(C)OCC(=O)OC(C)C)=CCC23)CC(O)CC1O [Compound 5, 1α,3β-dihydroxy-20(S)-(isopropoxycarbonylmethoxy)-9,10-secopregna-5,7,10(19),16-tetraene] | – | – | 0.3 | 1.35
C=C1/C(=C\C=C2/CCC[C@]3(C)C([C@H](C)OCCC(=O)OC(C)(C)C)=CC[C@@H]23)C[C@@H](O)C[C@@H]1O [Compound 3, 1α,3β-dihydroxy-20(S)-(tert-butoxycarbonylethoxy)-9,10-secopregna-5,7,10(19),16-tetraene] | – | – | 0.5 | –
1α,25(OH)2D3 | – | 1.0 | 1.0 | –
C=C1/C(=C\C=C2/CCC[C@]3(C)C([C@H](C)OCC(=O)NCC(F)(F)C(F)(F)F)=CC[C@@H]23)C[C@@H](O)C[C@@H]1O [Compound 12, {(1α,3β-dihydroxy-9,10-secopregna-5,7,10(19),16-tetraen-20(S)-yl)oxy}-N-(2,2,3,3,3-pentafluoropropyl)acetamide] | 1.58 | 8.3 | – | –
1α,3β-dihydroxy-20(S)-(N-tert-butylaminocarbonylmethoxy)-9,10-secopregna-5,7,10(19),16-tetraene [Compound 4] | – | – | 7.0 | 2.16
C=C1C(=CC=C2CCCC3(C)C(C(C)OCC(=O)OC(C)(C)CCC)=CCC23)CC(O)CC1O [Compound 8, 1α,3β-dihydroxy-20(S)-(1,1-dimethylbutoxycarbonylmethoxy)-9,10-secopregna-5,7,10(19),16-tetraene] | 1.39 | 2.5 | – | –
1α,3β-dihydroxy-20(S)-(N-tert-butyl-N-methylaminocarbonylmethoxy)-9,10-secopregna-5,7,10(19),16-tetraene [Compound 2] | – | – | 5.9 | 2.27
1α,3β-dihydroxy-20(S)-(1,1-dimethylhexyloxycarbonylmethoxy)-9,10-secopregna-5,7,10(19),16-tetraene [Compound 10] | 1.43 | 1.6 | – | –
C=C1C(=CC=C2CCCC3(C)C(C(C)OCCC(=O)OC(C)(CC)CC)=CCC23)CC(O)CC1O [Compound 11, 1α,3β-dihydroxy-20(S)-{2-(1-ethyl-1-methylpropoxycarbonyl)ethoxy}-9,10-secopregna-5,7,10(19),16-tetraene] | 1.42 | 0.4 | – | –
C=C1/C(=C\C=C2/CCC[C@]3(C)C([C@H](C)OCC(=O)OC(C)(CC)CC)=CC[C@@H]23)C[C@@H](O)C[C@@H]1O [Compound 6, 1α,3β-dihydroxy-20(S)-(1-ethyl-1-methylpropoxycarbonylmethoxy)-9,10-secopregna-5,7,10(19),16-tetraene] | 1.57 | 12.0 | – | –
